According to patent publication US11767341B2, “Lincosamide antibiotics and uses thereof” (President and Fellows of Harvard College, priority 2017, dated 2023):
Values after ≈ are worked out from the molar mass of the structure shown.

What was measured:
Assay in all cases: MIC determination
Type in all cases: cell-based
[1] = test system: S. aureus ATCC 29213; details: Staphylococcus aureus, ATCC29213, S. aureus ATCC 29213; read-out: MIC
[2] = test system: S. aureus BAA 977 iErmA; details: Staphylococcus aureus, BAA977
[3] = test system: S. aureus MP-549 msr(a) USA 300; details: Staphylococcus aureus, USA300, S. aureus MP-549 msr(a) USA 300
[4] = test system: S. aureus Micromyx USA 300; details: Staphylococcus aureus, USA300; S. aureus Micromyx USA 300; read-out: MIC
[5] = test system: S. aureus MMX 3035 cErmA; details: Staphylococcus aureus, MMX3035CERMA
[6] = test system: S. aureus BAA-1556 (USA 300); details: Staphylococcus aureus
[7] = test system: S. aureus UNT96, NRS710, MP-618 (USA 100, Erythro >8); details: Staphylococcus aureus
[8] = test system: S. aureus UNT-146, MP-620, TP 506 (ermA); details: Staphylococcus aureus
[9] = test system: S. aureus UNT-120, MP-619, NRS22 (USA 600, GISA); details: Staphylococcus aureus
[10] = test system: S. pneumoniae ATCC 49619; details: Streptococcus pneumoniae, ATCC49619; S. pneumoniae ATCC 49619; read-out: MIC
[11] = test system: S. pneumoniae MMX 3028 cErmB; details: Streptococcus pneumoniae, MMX3028CERMB; S. pneumoniae MMX 3028 cErmB; read-out: MIC
[12] = test system: S. pneumoniae MMX 3031 cMefA; details: Streptococcus pneumoniae, MMX3031CMEFA
[13] = test system: S. pneumoniae UNT-038, MP-626, TP 160 (mefA); details: Streptococcus pneumoniae
[14] = test system: S. pneumoniae UNT-039, MP-627, TP1517 (mefA); details: Streptococcus pneumoniae
[15] = test system: S. pneumoniae TP 1579 (ermB + tet(M, O)); details: Streptococcus pneumoniae
[16] = test system: S. pneumoniae TP 1537 (ermB + mefA); details: Streptococcus pneumoniae
[17] = test system: S. pyogenes ATCC 19615; details: Streptococcus pyogenes, ATCC19615; S. pyogenes ATCC 19615; read-out: MIC
[18] = test system: S. pyogenes MMX 946 Macrolide-Resistant; details: Streptococcus pyogenes
[19] = test system: S. pyogenes UNT-014, MP-625 MacRes; details: Streptococcus pyogenes; S. pyogenes UNT-014, MP-625 MacRes; read-out: MIC
[20] = test system: E. faecalis ATCC 29212; details: Enterococcus faecalis, ATCC29212
[21] = test system: E. faecalis MMX 847 Macrolide-Resistant; details: Enterococcus faecalis
[22] = test system: E. faecalis UNT-047 VRE; details: Enterococcus faecalis, VRE
[23] = test system: C. difficile BAA 1805; details: Clostridioides difficile, BAA1805; C. difficile BAA 1805; read-out: MIC
[24] = test system: B. fragilis ATCC 25285; details: Bacteroides fragilis, ATCC25285; B. fragilis ATCC 25285; read-out: MIC
[25] = test system: K. pneumoniae ATCC 10031; details: Klebsiella pneumoniae, ATCC10031; K. pneumoniae ATCC 10031; read-out: MIC
[26] = test system: K. pneumoniae IHMA 658692; KPC-2; details: Klebsiella pneumoniae
[27] = test system: K. pneumoniae UNT TEM-10; details: Klebsiella pneumoniae, UNTTEM10
[28] = test system: E. coli ATCC 25922; details: Escherichia coli, ATCC25922
[29] = test system: E. coli MMX TolC parent strain; details: Escherichia coli
[30] = test system: E. coli MMX 0121 ΔTolC; details: Escherichia coli
[31] = test system: E. coli GUEST131 (NDM-1); details: Escherichia coli
[32] = test system: P. aeruginosa ATCC 27853; details: Pseudomonas aeruginosa, ATCC27853
[33] = test system: P. aeruginosa MMX Mex parent strain; details: Pseudomonas aeruginosa
[34] = test system: P. aeruginosa MMX 3476 Δmex; details: Pseudomonas aeruginosa
[35] = test system: H. influenzae ATCC 49247; details: Haemophilus influenzae, ATCC49247; H. influenzae ATCC 49247; read-out: MIC

CSC1O[C@H]([C@H](NC(=O)[C@H]2NC[C@@H]3CC=CCO[C@H]32)[C@H](C)Cl)C(O)[C@@H](O)[C@H]1O (some centres unmarked) [FSA-24035]
MIC [1]: 0.12 µg/mL (≈ 0.275 µM)
MIC [2]: 0.25 µg/mL (≈ 0.572 µM)
MIC [3]: 0.5 µg/mL (≈ 1.14 µM)
MIC [4]: 0.12 µg/mL (≈ 0.275 µM)
MIC [5]: > 64 µg/mL
MIC [6]: > 32 µg/mL
MIC [7]: > 32 µg/mL
MIC [8]: > 32 µg/mL
MIC [9]: > 32 µg/mL
MIC [10]: ≤ 0.06 µg/mL
MIC [11]: 64 µg/mL (≈ 146 µM)
MIC [12]: ≤ 0.06 µg/mL
MIC [13]: ≤ 0.0313 µg/mL
MIC [14]: ≤ 0.0313 µg/mL
MIC [15]: ≤ 0.0313 µg/mL
MIC [16]: 32 µg/mL (≈ 73.2 µM)
MIC [17]: ≤ 0.0313 µg/mL
MIC [18]: 16 µg/mL (≈ 36.6 µM)
MIC [19]: ≤ 0.0313 µg/mL
MIC [20]: 16 µg/mL (≈ 36.6 µM)
MIC [21]: > 64 µg/mL
MIC [22]: > 32 µg/mL
MIC [23]: 2 µg/mL (≈ 4.58 µM)
MIC [24]: 8 µg/mL (≈ 18.3 µM)
MIC [25]: 64 µg/mL (≈ 146 µM)
MIC [26]: 32 µg/mL (≈ 73.2 µM)
MIC [27]: 32 µg/mL (≈ 73.2 µM)
MIC [28]: > 64 µg/mL
MIC [29]: > 64 µg/mL
MIC [30]: 4 µg/mL (≈ 9.15 µM)
MIC [31]: > 32 µg/mL
MIC [32]: > 64 µg/mL
MIC [33]: > 64 µg/mL
MIC [34]: 16 µg/mL (≈ 36.6 µM)
MIC [35]: 1 µg/mL (≈ 2.29 µM)
